In experiment [1] the target is T1, RAD51 (Homo sapiens, UniProt Q06609).
T1 construct: made in house; host or cells: E. coli BL21(DE3)Rosetta2
T1 sequence (Q06609 2-339): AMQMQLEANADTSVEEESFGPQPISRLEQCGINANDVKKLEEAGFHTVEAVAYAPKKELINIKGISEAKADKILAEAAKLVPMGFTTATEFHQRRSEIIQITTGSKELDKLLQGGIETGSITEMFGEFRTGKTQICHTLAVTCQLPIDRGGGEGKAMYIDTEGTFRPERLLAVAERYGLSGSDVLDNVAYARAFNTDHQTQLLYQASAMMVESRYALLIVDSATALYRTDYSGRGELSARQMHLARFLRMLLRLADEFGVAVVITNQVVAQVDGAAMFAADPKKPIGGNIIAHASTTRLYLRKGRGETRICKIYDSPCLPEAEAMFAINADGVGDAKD
Briefly: SPR Kd estimation of TR2 for wild-type and mutant RAD51. The class given is binding. The settings on record: saturation not achieved, would need >30 uM TR2. The procedure: (§1) All binding experiments were performed in CMA buffer: 25 mM HEPES pH 7.4, 100 mM NaCl, 2 mM DTT, 2 mM ATP, 5 mM CaCl2, 5 mM MgCl2. 1 μM RAD51 (wild-type, D184A or D184A, D187A mutant proteins) was injected for 120 seconds followed by buffer for 120 seconds at a flow rate of 10 μl/min. TR2 or BRC4 peptides were then injected in a concentration titration series of 0.1, 0.25, 0.5, 0.75, 1, 2, 3, 5, 7.5, 10 and 15 μM for 120 seconds at a flow rate of […] followed by a dissociation time of 240 seconds. After each injection of BRCA2 peptide, the sensor chip was regenerated with buffer comprising of CMA buffer with 1 M NaCl for 120 seconds at a flow rate of 100 μl/min. All experiments were performed in triplicate.
(§2) For the BRCA2 TR2 titration series, blank-subtracted sensorgrams were used to extract the maximum response accumulated after each TR2 injection. TR2 response accumulation was corrected to account for differences in RAD51 filament formation between runs, by multiplying the maximum response by a scale factor calculated as the ratio between mean RAD51 filament accumulation on each DNA substrate and the mean RAD51 accumulated for each mutant for each triplicate. […]
(§3) consequently the need to inject the TR2 peptide at high concentrations (>30 uM), which would change sample viscosity and affect the refractive index for detection. The Kd values that we obtained based on the measured […]

In experiment [2] the target is RAD51. The experiment is described as above. The class given is binding, human. The following applies: no binding saturation, large confidence intervals, statistically unreliable, no numbers given. The procedure: as §1, §2, §3

For “DDQKNCKKRRALDFLSRLPLPPPVSPICTFVSPAAQKAFQPPRSCGTKY [TR2, BRCA2 TR2 peptide spanning amino acids 3260 to 3308]”, the “affinity of TR2 for RAD51” value in experiment [1] is on record as “relatively low affinity”. The “Kd trend, wild-type versus mutant RAD51” value in experiment [2] was “KdwtRAD51 < KdmutRAD51”.

Values taken from paper PMC10622577, “Structural basis for stabilisation of the RAD51 nucleoprotein filament by BRCA2” (Nature Communications, 2023).
